Reference: publication PMC4836696 (PLoS ONE, 2016)
“Also recorded” adds a separate entry of the source.

Experiments:
[1] = system: DIO C57BL/6NTac mice; experiment: Chronic 28-day weight loss study in DIO mice; type: in vivo, mouse
[2] = system: subjects with T2D taking metformin; experiment: Clinical study Part C: pharmacodynamics (weight, glucose, HbA1c); type: in vivo, human; settings: Part C: usual metformin alone, mean ± SE
Excerpt: In all three Parts, to reduce the risk of gastrointestinal adverse events subjects started by taking 15 g of GSK457 daily, in 2 divided doses, and were up-titrated to 30g daily (Day 4) and then to a maximum dose of 40 g daily at Day 7. Subjects unable to tolerate doses of 30 g or 40 g were permitted to reduce their dose to tolerated levels, with a minimum tolerated dose of 15 g required to remain in the study. A unit dose of 5 g of GSK457 consisted of three capsules of oleic acid and a separate sachet of powder for each of the three powder compounds. […] Subjects monitored their capillary blood glucose levels twice a day using a wireless-enabled glucometer and daily weights were monitored using a wireless enabled weighing instrument (see S3 Materials and Methods for more information). […] Plasma was stored at -70°C until analyzed. Samples for clinical chemistry and hematology were measured by the local certified laboratory. Plasma samples were analyzed for glucose, insulin and leptin by BioAgilytix Labs (Durham, NC, USA). Glucose was measured using a Glucose 2300 STAT Plus Glucose Analyzer with the glucose/lactate standard, catalog number 2747 (Yellow Springs Instrument Co, OH, USA). […] An estimation approach was used where point estimates for treatment differences and corresponding confidence intervals were determined. […]

[3] = protocol risk table; cited from earlier work
[4] = system: patients; settings: cited from earlier work
[5] = Clinical study Part C: plasma metformin pharmacokinetics; type: in vivo, human; settings: Part C: metformin taken 1 hour before GSK457; comparative plot, no statistics
Procedure: All samples were shipped frozen on dry ice and stored at approximately -20 °C until analysed. […] The eluate was then further diluted with 1.00 mL of 2:98 formic acid / acetonitrile vol/vol, prior to being analyzed by HPLC with MS/MS detection.

[6] = Clinical study Part A: plasma metformin pharmacokinetics; settings: for metformin Cmax / metformin AUC(0−10): geometric mean (CV%); for metformin Tmax: median (range)
[7] = system: subjects with T2D taking liraglutide; experiment: Clinical study Part B: pharmacodynamics (weight, glucose, HbA1c); type: in vivo, human; settings: Part B: liraglutide alone titrated to 1.8 mg/day, mean ± SD
Excerpt: In all three Parts, to reduce the risk of gastrointestinal adverse events subjects started by taking 15 g of GSK457 daily, in 2 divided doses, and were up−titrated to 30g daily (Day 4) and then to a maximum dose of 40 g daily at Day 7. Subjects unable to tolerate doses of 30 g or 40 g were permitted to reduce their dose to tolerated levels, with a minimum tolerated dose of 15 g required to remain in the study. A unit dose of 5 g of GSK457 consisted of three capsules of oleic acid and a separate sachet of powder for each of the three powder compounds. […]
In Parts B and C, there were additional clinic visits on Days 7, 14, and 28 for safety evaluations, potential modification of dose (Days 7 and 14), and dispensing of study medications. Subjects monitored their capillary blood glucose levels twice a day using a wireless-enabled glucometer and daily weights were monitored using a wireless enabled weighing instrument (see S3 Materials and Methods for more information). […]
Venous blood samples were collected for PD and PK analysis in K^+ EDTA tubes and rapidly placed on ice until centrifuged at 4°C for 10 minutes. Plasma was stored at -70°C until analyzed. Samples for clinical chemistry and hematology were measured by the local certified laboratory. Plasma samples were analyzed for glucose, insulin and leptin by BioAgilytix Labs (Durham, NC, USA). […]

[8] = Clinical study Part B: plasma liraglutide pharmacokinetics
[9] = system: subjects with T2D taking liraglutide; experiment: Clinical study Part B: safety and tolerability; type: in vivo, human
Excerpt: A unit dose of 5 g of GSK457 consisted of three capsules of oleic acid and a separate sachet of powder for each of the three powder compounds. The powders were mixed by the subject into 12 oz of flavored (Mio™ pomegranate/berry flavoring) water in a shaker bottle and consumed just prior to breakfast and dinner. The capsules could be taken with this drink or separately with water. The matching placebo consisted of starch and microcrystalline cellulose in identical sachets and capsules.

[10] = subjects later randomized to GSK457
[11] = subjects later randomized to placebo
[12] = overdose, ref GLUCOPHAGE (Metformin) Package Insert
[13] = Part A healthy subjects, co-administration with GSK457
[14] = Part A, single 500 mg IR metformin, GSK457 group, Day 1 (metformin alone), n=11
[15] = Part A, single 500 mg IR metformin, GSK457 group, Day 42 (with GSK457), n=10
[16] = Part A, single 500 mg IR metformin, Placebo group, Day 1, n=4
[17] = Part A, single 500 mg IR metformin, Placebo group, Day 42, n=4
[18] = Part B, GSK457 group, Day 42, median (range), n=11
[19] = Part B, with GSK457, data from 1 outlier excluded

SMILES: CCCCCCCC/C=C\CCCCCCCC(=O)O [oleic acid]
- effect on endocrine hormones ([1]; agents dosed individually): little effect
- serum chemistry, effect of single agents ([1]; single GRAS agent in chow): only a small beneficial effect
- serum glucose vs. DIO vehicle ([1]; single agent in chow, p < 0.05): lowered glucose

SMILES: CN(C)C(=N)N=C(N)N [metformin]
- change in mean body weight during the 4-week metformin Stabilization phase [2, 10]: -1.62 kg
- change in mean body weight during the 4-week metformin Stabilization phase [2, 11]: -1.17 kg
- fraction of a dose that appears in the feces [3]: 20-30%
- patients with decrease to subnormal serum vitamin B12 levels ([4]; human, in vivo): approximately 7%
- hypoglycemia in metformin overdose cases [4, 12]: approximately 10 % of cases
- lactic acidosis in metformin overdose cases [4, 12]: approximately 32%
- effect on metformin AUC(0−10 h) [5]: slight decrease
- effect on metformin Cmax [5]: no apparent effect
- reduction of metformin systemic exposure ([6]; Part A healthy subjects, by GSK457): ~ 30%
- decrease of metformin AUC(0−10 h) [6, 13]: 32%
- decrease of metformin Cmax [6, 13]: 34%
- metformin Cmax ([6]; Part A healthy subjects, single 500 mg IR metformin before breakfast, Placebo group, Day 1, plasma, HPLC-MS/MS, n=4): 682 (19.0) ng/mL
- metformin AUC(0−10) [6, 14]: 3403 (26.4) ng.h/mL
- metformin Tmax [6, 14]: 2.00 (1.00−4.00) h
- metformin Cmax ([6]; Part A, single 500 mg IR metformin, GSK457 group, Day 1 (metformin alone, GSK457 started at dinner), n=11): 576 (24.4) ng/mL
- metformin Cmax ([6]; Part A, single 500 mg IR metformin, GSK457 group, Day 42 (taken together with GSK457 after 6 weeks), n=10): 374 (31.2) ng/mL
- metformin AUC(0−10) [6, 15]: 2232 (38.6) ng.h/mL
- metformin Tmax [6, 15]: 2.00 (2.00−5.50) h
- metformin AUC(0−10) [6, 16]: 4347 (19.1) ng.h/mL
- metformin Tmax [6, 16]: 3.01 (2.00−4.03) h
- metformin AUC(0−10) [6, 17]: 5082 (21.1) ng.h/mL
- metformin Cmax [6, 17]: 860 (18.8) ng/mL
- metformin Tmax [6, 17]: 4.00 (2.00−4.03) h

SMILES: CCCCCCCCCCCCCCCC(=O)N[C@@H](CCC(=O)NCCCC[C@H](NC(=O)[C@H](C)NC(=O)[C@H](C)NC(=O)[C@H](CCC(N)=O)NC(=O)CNC(=O)[C@H](CCC(=O)O)NC(=O)[C@H](CC(C)C)NC(=O)[C@H](Cc1ccc(O)cc1)NC(=O)[C@H](CO)NC(=O)[C@H](CO)NC(=O)[C@@H](NC(=O)[C@H](CC(=O)O)NC(=O)[C@H](CO)NC(=O)[C@@H](NC(=O)[C@H](Cc1ccccc1)NC(=O)[C@@H](NC(=O)CNC(=O)[C@H](CCC(=O)O)NC(=O)[C@H](C)NC(=O)[C@@H](N)Cc1cnc[nH]1)[C@@H](C)O)[C@@H](C)O)C(C)C)C(=O)N[C@@H](CCC(=O)O)C(=O)N[C@@H](Cc1ccccc1)C(=O)N[C@H](C(=O)N[C@@H](C)C(=O)N[C@@H](Cc1c[nH]c2ccccc12)C(=O)N[C@@H](CC(C)C)C(=O)N[C@H](C(=O)N[C@@H](CCCNC(=N)N)C(=O)NCC(=O)N[C@@H](CCCNC(=N)N)C(=O)NCC(=O)O)C(C)C)[C@@H](C)CC)C(=O)O [liraglutide]
- change in mean body weight during the 12-week liraglutide Stabilization phase [7, 10]: -1.29 kg
- change in mean body weight during the 12-week liraglutide Stabilization phase [7, 11]: -2.55 kg
- effect of co-administration with GSK457 on liraglutide plasma exposures ([8]; Part B T2D patients, all data): did not affect liraglutide plasma exposures; also recorded: no effect
- liraglutide AUC(0−t) ([8]; Part B, GSK457 group, Day 42 (with GSK457), geometric mean (CV%), n=11): 1266 (79.4) ng.h/mL
- liraglutide Tlast [8, 18]: 24.02 (23.8−24.3) h
- liraglutide Tmax [8, 18]: 9.98 (0.8−23.8) h
- liraglutide Tlast ([8]; Part B, GSK457 group, Day -1, median (range), n=12): 23.88 (23.0−25.9) h
- liraglutide Tlast ([8]; Part B, Placebo group, Day 42, median (range), n=5): 23.80 (23.8−24.1) h
- increase of liraglutide AUC(0−t) [8, 19]: 28%
- increase of liraglutide Cmax [8, 19]: 22%
- most common drug-related adverse events during the Stabilization period ([9]; Part B: liraglutide alone, 12 weeks, titrated to 1.8 mg/day): nausea, diarrhea, decreased appetite, and headache
- circulating lipase/amylase concentrations ([9]; Part B: while subjects were on liraglutide, no symptoms or signs of pancreatitis, no clear differentiation GSK457 vs placebo): Asymptomatic elevations
